In patent US9926281B2 (priority 2014, dated 2018):

Legend:
human ADAMTS-5 = human ADAMTS-5 (Homo sapiens (Human), UniProt Q9UNA0); details: read-out: hADAMTS-5 potency IC50
Experimental: Finally, the fluorescence is read on the Envision (Perkin Elmer) after an incubation of 90 min at 37° C.

human TACE = human TACE (Homo sapiens (Human), UniProt P78536); details: read-out: TACE potency IC50
Sequence of human TACE (P78536 whole entry, looked up, change not shown): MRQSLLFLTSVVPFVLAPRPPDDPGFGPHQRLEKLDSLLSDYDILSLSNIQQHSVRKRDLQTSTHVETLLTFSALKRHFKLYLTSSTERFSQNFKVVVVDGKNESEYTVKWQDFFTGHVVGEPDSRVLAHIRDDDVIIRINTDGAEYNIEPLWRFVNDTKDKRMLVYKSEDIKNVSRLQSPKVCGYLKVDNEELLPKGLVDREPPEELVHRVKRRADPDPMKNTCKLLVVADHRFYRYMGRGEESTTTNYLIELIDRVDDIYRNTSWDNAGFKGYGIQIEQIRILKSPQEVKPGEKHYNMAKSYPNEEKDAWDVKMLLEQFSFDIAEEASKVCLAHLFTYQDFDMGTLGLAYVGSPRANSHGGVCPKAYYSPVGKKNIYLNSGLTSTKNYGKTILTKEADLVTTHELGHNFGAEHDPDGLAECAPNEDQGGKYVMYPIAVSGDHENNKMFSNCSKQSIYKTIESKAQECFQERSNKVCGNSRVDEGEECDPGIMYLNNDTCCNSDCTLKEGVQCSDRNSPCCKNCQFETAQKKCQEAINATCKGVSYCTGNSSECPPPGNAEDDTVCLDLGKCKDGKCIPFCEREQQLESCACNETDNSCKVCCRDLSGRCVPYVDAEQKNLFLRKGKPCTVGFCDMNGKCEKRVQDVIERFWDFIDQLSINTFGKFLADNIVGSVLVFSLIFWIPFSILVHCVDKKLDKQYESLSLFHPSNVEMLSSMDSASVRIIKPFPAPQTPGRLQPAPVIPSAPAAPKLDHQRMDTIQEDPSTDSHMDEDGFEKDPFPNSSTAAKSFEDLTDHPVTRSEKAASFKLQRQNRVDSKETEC

Sequence of human ADAMTS-5 (Q9UNA0 262-930): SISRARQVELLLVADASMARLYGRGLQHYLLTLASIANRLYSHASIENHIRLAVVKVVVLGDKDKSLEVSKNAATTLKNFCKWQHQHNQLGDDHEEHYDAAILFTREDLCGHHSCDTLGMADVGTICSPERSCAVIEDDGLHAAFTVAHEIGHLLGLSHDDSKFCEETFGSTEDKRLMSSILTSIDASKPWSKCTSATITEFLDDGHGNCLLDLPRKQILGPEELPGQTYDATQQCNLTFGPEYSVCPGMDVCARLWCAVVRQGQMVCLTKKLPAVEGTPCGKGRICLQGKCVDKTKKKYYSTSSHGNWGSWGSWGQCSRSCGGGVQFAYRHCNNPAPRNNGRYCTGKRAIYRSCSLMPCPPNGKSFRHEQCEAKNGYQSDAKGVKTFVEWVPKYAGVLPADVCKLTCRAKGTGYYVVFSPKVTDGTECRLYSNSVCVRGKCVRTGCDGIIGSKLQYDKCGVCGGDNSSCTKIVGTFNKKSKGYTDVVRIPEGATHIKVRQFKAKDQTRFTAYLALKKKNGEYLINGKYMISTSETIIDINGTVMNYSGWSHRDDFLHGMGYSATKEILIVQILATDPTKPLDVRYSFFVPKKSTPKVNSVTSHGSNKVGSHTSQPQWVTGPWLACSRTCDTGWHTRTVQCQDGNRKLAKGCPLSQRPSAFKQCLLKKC

Row | SMILES | IC50 (human ADAMTS-5) [nM] | IC50 (human TACE) [nM]
1 | C[C@H]1CN(C(=O)CCC2(C3CC3)NC(=O)NC2=O)CCN1c1cc(Cl)cc(Cl)n1 (stereo partly drawn) [compound 257, 5-cyclopropyl-5-[3-[(3S)-4-(4,6-dichloro-2-pyridyl)-3-methyl-piperazin-1-yl]-3-oxo-propyl]imidazolidine-2,4-dione] | 1570 | > 4000
2 | C[C@H]1CN(C(=O)CCC2(C3CC3)NC(=O)NC2=O)CCN1c1cc(Cl)nc(Cl)c1 (stereo partly drawn) [compound 258, 5-cyclopropyl-5-[3-[(3S)-4-(2,6-dichloro-4-pyridyl)-3-methyl-piperazin-1-yl]-3-oxo-propyl]imidazolidine-2,4-dione] | 1530 | > 20000
3 | CC(CC1(c2ccccn2)NC(=O)NC1=O)C(=O)N1CCN(c2cccc(F)c2)[C@@H](C)C1 (stereo partly drawn) [compound 263, 5-[3-[(3S)-4-(3-fluorophenyl)-3-methyl-piperazin-1-yl]-2-methyl-3-oxo-propyl]-5-(2-pyridyl)imidazolidine-2,4-dione] | 19 | 2620
4 | CC(CC1(c2ccccn2)NC(=O)NC1=O)C(=O)N1CCN(c2ccc(F)c(F)c2)[C@@H](C)C1 (stereo partly drawn) [compound 264, 5-[3-[(3S)-4-(3,4-difluorophenyl)-3-methyl-piperazin-1-yl]-2-methyl-3-oxo-propyl]-5-(2-pyridyl)imidazolidine-2,4-dione] | 19 | > 4000
5 | Cc1cc(N2CCN(C(=O)CCC3(C)NC(=O)NC3=O)CC2)c(F)cc1Cl (centres unmarked) [compound 267, 5-[3-[4-(4-chloro-2-fluoro-5-methyl-phenyl)piperazin-1-yl]-3-oxo-propyl]-5-methyl-imidazolidine-2,4-dione] | 3080 | > 4000
6 | CC(CC1(c2ccccn2)NC(=O)NC1=O)C(=O)N1CCN(c2cccc(Cl)c2)[C@@H](C)C1 (stereo partly drawn) [compound 269, 5-[3-[(3S)-4-(3-chlorophenyl)-3-methyl-piperazin-1-yl]-2-methyl-3-oxo-propyl]-5-(2-pyridyl)imidazolidine-2,4-dione] | 19 | 840
7 | CC(CC1(C)NC(=O)NC1=O)C(=O)N1C[C@H](C)N(c2cc(Cl)cc(Cl)c2)[C@@H](C)C1 (stereo partly drawn) [compound 271, 5-[3-[(3S,5S)-4-(3,5-dichlorophenyl)-3,5-dimethyl-piperazin-1-yl]-2-methyl-3-oxo-propyl]-5-methyl-imidazolidine-2,4-dione] | 1300 | > 20000
8 | C[C@H]1CN(C(=O)CCC2(C3CC3)NC(=O)NC2=O)CCN1c1ccc2[nH]ccc2c1 (stereo partly drawn) [compound 274, 5-cyclopropyl-5-[3-[(3S)-4-(1H-indol-5-yl)-3-methyl-piperazin-1-yl]-3-oxo-propyl]imidazolidine-2,4-dione] | > 4000 | > 20000
9 | CC(CC1(C)NC(=O)NC1=O)C(=O)N1CCN(c2cccnc2)[C@@H](C)C1 (stereo partly drawn) [compound 275, 5-methyl-5-[2-methyl-3-[(3S)-3-methyl-4-(3-pyridyl)piperazin-1-yl]-3-oxo-propyl]imidazolidine-2,4-dione] | 266 | > 20000
10 | O=C1NC(=O)C(CCC(=O)N2CCN(c3ccncc3)CC2)(C2CC2)N1 (centres unmarked) [compound 278, 5-cyclopropyl-5-[3-oxo-3-[4-(4-pyridyl)piperazin-1-yl]propyl]imidazolidine-2,4-dione] | > 20000 | > 20000
11 | COCC1(CC(C)C(=O)N2CCN(c3cc(F)c(Cl)c(F)c3)CC2)NC(=O)NC1=O (centres unmarked) [compound 279, 5-[3-[4-(4-chloro-3,5-difluoro-phenyl)piperazin-1-yl]-2-methyl-3-oxo-propyl]-5-(methoxymethyl)imidazolidine-2,4-dione] | 19 | 2990
12 | C[C@H]1CN(C(=O)CCC2(C3CC3)NC(=O)NC2=O)CCN1c1cccc2ccoc12 (stereo partly drawn) [compound 280, 5-[3-[(3S)-4-(benzofuran-7-yl)-3-methyl-piperazin-1-yl]-3-oxo-propyl]-5-cyclopropyl-imidazolidine-2,4-dione] | 275 | > 20000
13 | C[C@H]1CN(C(=O)CCC2(C3CC3)NC(=O)NC2=O)CCN1c1cccc(-c2cnn(C)c2)c1 (stereo partly drawn) [compound 283, 5-cyclopropyl-5-[3-[(3S)-3-methyl-4-[3-(1-methylpyrazol-4-yl)phenyl]piperazin-1-yl]-3-oxo-propyl]imidazolidine-2,4-dione] | 1080 | > 20000
14 | C[C@H]1CN(C(=O)CCC2(C3CC3)NC(=O)NC2=O)CCN1c1nccc(Cl)n1 (stereo partly drawn) [compound 284, 5-[3-[(3S)-4-(4-chloropyrimidin-2-yl)-3-methyl-piperazin-1-yl]-3-oxo-propyl]-5-cyclopropyl-imidazolidine-2,4-dione] | > 12000 | > 20000
15 | C[C@H]1CN(C(=O)CCC2(C3CC3)NC(=O)NC2=O)CCN1c1ccc(Cl)nn1 (stereo partly drawn) [compound 285, 5-[3-[(3S)-4-(6-chloropyridazin-3-yl)-3-methyl-piperazin-1-yl]-3-oxo-propyl]-5-cyclopropyl-imidazolidine-2,4-dione] | 892 | > 4000
16 | C[C@H]1CN(C(=O)CCC2(C3CC3)NC(=O)NC2=O)CCN1c1cnccn1 (stereo partly drawn) [compound 286, 5-cyclopropyl-5-[3-[(3S)-3-methyl-4-pyrazin-2-yl-piperazin-1-yl]-3-oxo-propyl]imidazolidine-2,4-dione] | > 4000 | > 20000

Row | SMILES | IC50 (human ADAMTS-5) [nM] | IC50 (human TACE) [nM]
17 | C[C@H]1CN(C(=O)CCC2(C3CC3)NC(=O)NC2=O)CCN1c1cnc2ccccc2c1 (stereo partly drawn) [compound 289, 5-cyclopropyl-5-[3-[(3S)-3-methyl-4-(3-quinolyl)piperazin-1-yl]-3-oxo-propyl]imidazolidine-2,4-dione] | 97 | > 4000
18 | COCC(CC1(C)NC(=O)NC1=O)C(=O)N1CCN(c2cccc(F)c2)[C@@H](C)C1 (stereo partly drawn) [compound 292, 5-[3-[(3S)-4-(3-fluorophenyl)-3-methyl-piperazin-1-yl]-2-(methoxymethyl)-3-oxo-propyl]-5-methyl-imidazolidine-2,4-dione] | 48 | > 4000
19 | C[C@H]1CN(C(=O)CCC2(C3CC3)NC(=O)NC2=O)CCN1c1ccc2[nH]ncc2c1 (stereo partly drawn) [compound 296, 5-cyclopropyl-5-[3-[(3S)-4-(1H-indazol-5-yl)-3-methyl-piperazin-1-yl]-3-oxo-propyl]imidazolidine-2,4-dione] | > 4000 | > 20000
20 | C[C@H]1CN(C(=O)CCC2(C3CC3)NC(=O)NC2=O)CCN1c1ccc2c(cnn2C)c1 (stereo partly drawn) [compound 297, 5-cyclopropyl-5-[3-[(3S)-3-methyl-4-(1-methylindazol-5-yl)piperazin-1-yl]-3-oxo-propyl]imidazolidine-2,4-dione] | > 3620 | > 20000
21 | Cc1cc(N2CCN(C(=O)CCC3(C4CC4)NC(=O)NC3=O)C[C@@H]2C)ccc1F (stereo partly drawn) [compound 298, 5-cyclopropyl-5-[3-[(3S)-4-(4-fluoro-3-methyl-phenyl)-3-methyl-piperazin-1-yl]-3-oxo-propyl]imidazolidine-2,4-dione] | 192 | > 20000
22 | Cc1ccc(N2CCN(C(=O)CCC3(C4CC4)NC(=O)NC3=O)C[C@@H]2C)cc1F (stereo partly drawn) [compound 299, 5-cyclopropyl-5-[3-[(3S)-4-(3-fluoro-4-methyl-phenyl)-3-methyl-piperazin-1-yl]-3-oxo-propyl]imidazolidine-2,4-dione] | 114 | > 20000
23 | C[C@H]1CN(C(=O)CCC2(C3CC3)NC(=O)NC2=O)CCN1c1ccc(F)cc1 (stereo partly drawn) [compound 300, 5-cyclopropyl-5-[3-[(3S)-4-(4-fluorophenyl)-3-methyl-piperazin-1-yl]-3-oxo-propyl]imidazolidine-2,4-dione] | 140 | > 20000
24 | C[C@H]1CN(C(=O)CCC2(C3CC3)NC(=O)NC2=O)CCN1c1ccnc(Cl)n1 (stereo partly drawn) [compound 301, 5-[3-[(3S)-4-(2-chloropyrimidin-4-yl)-3-methyl-piperazin-1-yl]-3-oxo-propyl]-5-cyclopropyl-imidazolidine-2,4-dione] | > 20000 | > 20000
25 | Cc1cncc(N2CCN(C(=O)CCC3(C4CC4)NC(=O)NC3=O)C[C@@H]2C)c1 (stereo partly drawn) [compound 303, 5-cyclopropyl-5-[3-[(3S)-3-methyl-4-(5-methyl-3-pyridyl)piperazin-1-yl]-3-oxo-propyl]imidazolidine-2,4-dione] | 266 | > 20000
26 | C[C@H]1CN(C(=O)CCC2(C3CC3)NC(=O)NC2=O)CCN1c1cncnc1 (stereo partly drawn) [compound 304, 5-cyclopropyl-5-[3-[(3S)-3-methyl-4-pyrimidin-5-yl-piperazin-1-yl]-3-oxo-propyl]imidazolidine-2,4-dione] | > 4000 | > 20000
27 | Cc1ccc(N2CCN(C(=O)CCC3(C4CC4)NC(=O)NC3=O)C[C@@H]2C)cc1Cl (stereo partly drawn) [compound 306, 5-[3-[(3S)-4-(3-chloro-4-methyl-phenyl)-3-methyl-piperazin-1-yl]-3-oxo-propyl]-5-cyclopropyl-imidazolidine-2,4-dione] | 67 | > 4000
28 | Cc1cccc(C2(CCC(=O)N3CCN(c4cc(Cl)cc(Cl)c4)[C@@H](C)C3)NC(=O)NC2=O)n1 (stereo partly drawn) [compound 310, 5-[3-[(3S)-4-(3,5-dichlorophenyl)-3-methyl-piperazin-1-yl]-3-oxo-propyl]-5-(6-methyl-2-pyridyl)imidazolidine-2,4-dione] | 50 | 1320
29 | Cc1cccc(C2(CCC(=O)N3CCN(c4cccc(Cl)c4)[C@@H](C)C3)NC(=O)NC2=O)n1 (stereo partly drawn) [compound 311, 5-[3-[(3S)-4-(3-chlorophenyl)-3-methyl-piperazin-1-yl]-3-oxo-propyl]-5-(6-methyl-2-pyridyl)imidazolidine-2,4-dione] | 57 | 3070
30 | Cc1cccc(C2(CCC(=O)N3CCN(c4ccc(Cl)cc4)[C@@H](C)C3)NC(=O)NC2=O)n1 (stereo partly drawn) [compound 312, 5-[3-[(3S)-4-(4-chlorophenyl)-3-methyl-piperazin-1-yl]-3-oxo-propyl]-5-(6-methyl-2-pyridyl)imidazolidine-2,4-dione] | 40 | 3680
31 | C[C@H]1CN(C(=O)CCC2(c3cccnc3)NC(=O)NC2=O)CCN1c1ccc(Cl)c(F)c1 (stereo partly drawn) [compound 315, 5-[3-[(3S)-4-(4-chloro-3-fluoro-phenyl)-3-methyl-piperazin-1-yl]-3-oxo-propyl]-5-(3-pyridyl)imidazolidine-2,4-dione] | 42 | > 4000
